Counter-ions that a name gives are not always drawn. Like-named read-outs stand apart in the source and are kept apart here.
How the values were obtained:
Dopamine D2 receptor = molecular target: T1, Dopamine D2 receptor (Homo sapiens, UniProt P14416); experiment: Dopamine D2 receptor binding assay ([125I]iodospiperone)
T1 construct: purchased Receptor Biology (now owned by NEN) RBHD2CM
Description: The assay buffers used are 50 mM Tris-HCl pH 7.4, 120 mM NaCl, 5 mM KCl, 5 mM MgCl2, 1 mM EDTA for the Dopamine D2s receptor binding assay. […] The membranes used are from Receptor Biology (now owned by NEN), Cat # RBHD2CM for the D2 receptor.
Compounds are obtained as 10 mM stocks in 100% DMSO. They are diluted to 1 mM in 100% DMSO by adding 180 μL DMSO to 20 μL of stock in 96 well plates using a multidrop. […] This is done using a TECAN robot.
The radioligand is diluted in assay buffer to provide 0.1 nM for the D2 assay. Each vial of membranes is diluted up to 92 mL in assay buffer. The final assay volume is 250 μL consisting of 210 μl of diluted membranes, 20 μL of compound or 10% DMSO for total binding, and 20 μL of diluted radioligand. The compounds are transferred from drug dilution plates into coming 96 well assay plates using a 96 well Multimek pipettor. Radioligand and membranes are added to assay plates using multidrop pipettors. Non-specific binding is determined in wells containing a final concentration of 5 μM haloperidol. The final drug concentration range in half logs is from 10 μM down to 0.1 nM.
After addition of drug, membrane, and ligand, the plates are incubated for 2 hours at room temperature. During this time 96 well Millipore filter plates (MAFBNOB50) are soaked for a least 30 minutes with 200 μL per well of 0.5% polyethyleneimine.
The 0.5% PEI is removed from filterplate wells using a TiterTek MAP aspirator and 200 μL of the incubation mixture is transferred from the incubation plate to the filterplate after mixing. This transfer is done using the 96 tip Mutimek pipettor. After transfer to the filterplate filterplates are extracted and ished twice with 220 μL per well of cold buffer on the MAP aspirator. The peel away bottoms are removed from the filterplates and 60 μL per well of microscint 20 scintillation fluid is added per well using a multidrop. […]

[1] = molecular target: T2, human Histamine-1 receptors (Homo sapiens, UniProt P35367); experiment: 3H-Pyrilamine SPA binding to human Histamine-1 receptors; conditions: read-out: Receptor affinity (Ki, nM) H1
T2 construct: expressed in transfected cells
T2 sequence (P35367 whole entry): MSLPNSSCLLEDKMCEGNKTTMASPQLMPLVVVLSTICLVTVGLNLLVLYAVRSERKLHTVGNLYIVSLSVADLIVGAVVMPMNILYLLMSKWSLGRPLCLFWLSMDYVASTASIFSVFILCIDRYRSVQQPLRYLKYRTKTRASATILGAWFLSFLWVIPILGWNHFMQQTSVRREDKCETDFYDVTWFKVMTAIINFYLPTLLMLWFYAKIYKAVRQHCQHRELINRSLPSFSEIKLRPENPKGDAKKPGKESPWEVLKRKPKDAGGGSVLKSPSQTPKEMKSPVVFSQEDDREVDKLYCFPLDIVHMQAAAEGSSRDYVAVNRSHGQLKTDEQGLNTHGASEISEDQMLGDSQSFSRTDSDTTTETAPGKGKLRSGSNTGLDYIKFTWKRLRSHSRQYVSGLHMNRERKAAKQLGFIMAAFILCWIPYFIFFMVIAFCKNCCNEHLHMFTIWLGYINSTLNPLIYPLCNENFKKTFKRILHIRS
Description: Their ability of a compound to block histamine H1 receptors can be estimated in vitro by measuring the in vitro histamine H1 receptor affinity. […] The ratio of in vitro histamine H1 receptor affinity divided by the in vitro dopamine D2 receptor affinity, both expressed as Ki's, is an estimate of a compound's likelihood to cause weight gain at therapeutic levels. […] Incubations were performed in a total volume of 200 μl in 96 well assay plates. 50 μl ^3H-pyrilamine (NEN, 20 Ci/mmol, final concentration=3.0 nM) was added to 50 μl of test compounds dissolved in water (±DMSO and/or glacial acetic acid). 50 μl Wheat Germ Agglutinin (WGA) bead, at 1 mg/well, (Amersham Life Sciences) in assay buffer (67 mM TrisCl pH 7.4) were then added. Membrane homogenate from cells expressing human Histamine-1 receptors, approximately 700,000 cells/well, was added last. The plates were covered with sealing tape (FasCal) and allowed to incubate at room temperature for 2 hours. The plates were then centrifuged at approximately 200×g for 10 minutes at room temperature. The amount of ^3H-pyrilamine bound to the membranes, ie proximate to the WGA bead, was then determined using a Wallac MicroBeta Trilux Scintillation Counter (Wallac, Inc.).

dopamine D2 receptors = molecular target: T3, dopamine D2 receptors (Rattus norvegicus, UniProt P61169); experiment: DOPAC concentrations in rat nucleus accumbens (in vivo D2 receptor blockade); conditions: dose that increases DOPAC to 200% of control, 90 minutes after gavage
T3 construct: from tissue; host or cells: male Sprague Dawley rats, nucleus accumbens (in vivo)
T3 sequence (P61169 whole entry): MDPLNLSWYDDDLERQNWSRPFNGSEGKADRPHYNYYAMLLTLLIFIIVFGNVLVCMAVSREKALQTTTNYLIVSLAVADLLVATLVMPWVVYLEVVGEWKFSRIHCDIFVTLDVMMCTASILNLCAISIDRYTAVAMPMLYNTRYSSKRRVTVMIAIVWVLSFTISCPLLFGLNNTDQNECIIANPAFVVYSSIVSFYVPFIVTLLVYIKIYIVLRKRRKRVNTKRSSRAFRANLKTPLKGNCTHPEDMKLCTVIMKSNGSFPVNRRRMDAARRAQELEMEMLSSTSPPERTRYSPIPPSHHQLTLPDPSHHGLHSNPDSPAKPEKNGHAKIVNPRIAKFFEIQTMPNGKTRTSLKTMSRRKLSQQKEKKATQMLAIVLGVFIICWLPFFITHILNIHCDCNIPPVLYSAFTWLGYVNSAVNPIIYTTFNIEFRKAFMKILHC
Description: Antipsychotics are believed to exert at least part of their therapeutic effects through blockade of the dopamine D2 receptor. The ability of a compound to block dopamine D2 receptors in the rat in vivo was determined by measuring the effect of the compound on the level of DOPAC (3,4-dihydroxyphenylacetic acid), a metabolite of dopamine, in nucleus accumbeus of the rat. Dopamine D2 receptor antagonists increase the release of dopamine into the synapse due to blockade of the dopamine D2 autoreceptor. This increased release of dopamine cannot be directly measured, since the efficiency of the dopamine reuptake system prevents increases in synaptic dopamine concentrations. Instead, increases in the levels of the dopamine metabolites DOPAC (3,4-dihydroxyphenylacetic acid) and HVA (homovanillic acid) reflect increased neuronal dopaminergic activity in vivo.
(§1) Male Sprague Dawley rats (Harlan Sprague Dawley, Inc., Indianapolis, Ind.) weighing 110 grams were fasted overnight. […] All other compounds were administered at 5 ml/kg in dilute lactic acid. Tissues were dissected, frozen on dry ice and stored at −70° C. prior to analysis.
Rat nucleus accumbens DOPAC (3,4-dihydroxyphenylacetic acid) concentrations were measured using high-pressure liquid chromatography with electrochemical detection (HPLC-EC). Tissues were sonicated in 1 ml 0.1N TCA. After centrifugation, a 25 µl aliquot of supernatant was injected onto a BDS Hypersyl C18 column (150×4.6 mm, Keystone Scientific). The elution buffer contained 75 mM sodium phosphate monobasic, 0.5 mM EDTA, 350 mg/L 1-octanesulfonate sodium, 7% acetonitrile (v/v) and 0.7% tetrahydrofuran (v/v), pH 3.0. The flow rate was 1.2 ml/min at 40° C. Peak heights were measured at 750 mV at 10 nA sensitivity and compared with samples containing known amounts of DOPAC standards.

[2] = molecular target: T4, hypothalamic histamine H1 receptors (Rattus norvegicus, UniProt P31390); experiment: Histamine H1 ex vivo binding ([3H]-pyrilamine, rat hypothalamic homogenates); format: in vivo; conditions: rat hypothalamus; dose required to occupy 50% of histamine H1 receptors; 90 minutes after gavage
T4 construct: from tissue; host or cells: hypothalamus of male Sprague Dawley rats
T4 sequence (P31390 whole entry): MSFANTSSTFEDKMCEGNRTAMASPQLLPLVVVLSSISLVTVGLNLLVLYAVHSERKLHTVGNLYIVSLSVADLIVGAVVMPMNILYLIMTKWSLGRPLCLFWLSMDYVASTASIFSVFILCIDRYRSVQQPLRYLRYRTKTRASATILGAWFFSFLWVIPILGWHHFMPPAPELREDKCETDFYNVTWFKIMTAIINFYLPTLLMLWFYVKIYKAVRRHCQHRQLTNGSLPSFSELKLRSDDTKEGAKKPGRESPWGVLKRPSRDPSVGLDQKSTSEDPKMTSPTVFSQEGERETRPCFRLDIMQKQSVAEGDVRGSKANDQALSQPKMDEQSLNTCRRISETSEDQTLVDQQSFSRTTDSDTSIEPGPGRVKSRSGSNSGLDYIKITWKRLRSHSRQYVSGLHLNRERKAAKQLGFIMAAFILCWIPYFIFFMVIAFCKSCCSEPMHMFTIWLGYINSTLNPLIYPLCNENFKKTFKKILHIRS
Description: The in vivo potency of a compound to occupy hypothalamic histamine H1 receptors in the rat was determined using a histamine H1 ex vivo binding assay.
as §1
Ex vivo binding of the histamine H1 antagonist [^3H]-pyrilamine (NEN Life Science Products) to rat hypothalamic homogenates was determined. Tissues were homogenized in 600 μl incubation buffer (50 mM sodium phosphate monobasic, pH 7.4) and pre-incubated 10 minutes at 37° C. to remove endogenous histamine. Triplicate tubes, each containing 100 μl homogenate, were combined with 1 ml buffer containing 3 nM [^3H]-pyrilamine and incubated 30 minutes at 25° C. […] [^3H]-pyrilamine binding was measured after separation filtration using a Brandell cell harvester with GF/C filters which had been soaked in 0.1% polyethylenimine. ED50 values were determined using the Allfit statistical program for displacement binding.

[3] = relative Ki scale of Table 5, read-out: Relative D2 Receptor Binding Affinity Ki
[4] = read-out: Receptor affinity (Ki, nM) D2

T1 sequence (P14416 1-414 isoform P14416-2): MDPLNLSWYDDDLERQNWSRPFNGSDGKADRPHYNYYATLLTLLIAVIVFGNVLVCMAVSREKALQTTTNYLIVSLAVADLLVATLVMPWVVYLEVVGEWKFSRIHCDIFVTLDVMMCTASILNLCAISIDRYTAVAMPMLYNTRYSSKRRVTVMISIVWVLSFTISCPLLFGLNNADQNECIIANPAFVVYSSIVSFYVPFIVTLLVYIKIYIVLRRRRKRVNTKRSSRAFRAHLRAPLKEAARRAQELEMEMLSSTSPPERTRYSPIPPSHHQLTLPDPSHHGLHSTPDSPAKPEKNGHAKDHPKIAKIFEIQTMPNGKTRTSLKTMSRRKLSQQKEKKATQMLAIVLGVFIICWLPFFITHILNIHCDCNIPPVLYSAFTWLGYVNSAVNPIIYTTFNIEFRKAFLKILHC

| Ki (Dopamine D2 receptor; [3]) [nM] | melting point | Ki (Dopamine D2 receptor; [4]) [nM] | Ki [1] [nM] | In vivo activity D2: DOPAC elevation (ED200) (dopamine D2 receptors) | In vivo activity H1: H1 ex vivo binding (ED50) [2] | Compound |
| --- | --- | --- | --- | --- | --- | --- |
| 100 to 1000 | 63 °C (dec.) | – | – | – | – | COCC[C@H]1CN(C2=Nc3ccccc3Nc3ccc(C)cc32)CCN1 [Example 199, (S)-2-Methyl-11-[3-(2-methoxy-ethyl)-piperazin-1-yl]-5H-dibenzo[b,e][1,4]diazepine] |
| 100 to 1000 | 60 °C (dec.) | – | – | – | – | COCC[C@H]1CN(C2=Nc3ccccc3Nc3ccc(C)cc32)CCN1C [Example 216, (S)-2-Methyl-11-[3-(2-methoxy-ethyl)-4-methyl-piperazin-1-yl]-5H-dibenzo[b,e][1,4]diazepine] |
| 10 to 100 | > 250 °C (dec.) | – | – | – | – | Cc1cc2c(s1)Nc1ccccc1N=C2N1CCN[C@@H](CCO)C1.Cl.Cl [Example 240, (S)-2-[4-(2-Methyl-4H-3-thia-4,9-diazabenzo[f]azulene-10-yl)-piperazin-2-yl]ethanol dihydrochloride] |
| 100 to 1000 | > 250 °C (dec.) | – | – | – | – | Cc1cc2c(s1)Nc1ccccc1N=C2N1CCN[C@H](CCO)C1.Cl.Cl [Example 241, (R)-2-[4-(2-Methyl-4H-3-thia-4,9-diazabenzo[f]azulene-10-yl)-piperazin-2-yl]ethanol dihydrochloride] |
| – | 179 to 183 °C (dec.) | – | – | – | – | COCC[C@H]1CN(C2=Nc3cc(Cl)ccc3Nc3sc(C)cc32)CCN1 [Example 258, (S)-7-Chloro-10-[3-(2-methoxy-ethyl)-piperazin-1-yl]-2-methyl-4H-3-thia-4,9-diazabenzo[f]azulene] |
| – | 118 to 124 °C | – | – | – | – | Cc1cc2c(s1)Nc1ccccc1N=C2N1CCN(C)[C@@H](CO)C1 [Example 259, (R)-[1-Methyl-4-(2-methyl-4H-3-thia-4,9-diaza-benzo[f]azulen-10-yl)-piperazin-2-yl]-methanol] |
| – | 76 to 80 °C | – | – | – | – | COC[C@H]1CN(C2=Nc3ccccc3Nc3sc(C)cc32)CCN1C [Example 260, (R)-10-(3-Methoxymethyl-4-methyl-piperazin-1-yl)-2-methyl-4H-3-thia-4,9-diaza-benzo[f]azulene] |
| – | 74 to 88 °C | – | – | – | – | Cc1cc2c(s1)Nc1ccccc1N=C2N1CCN(C)[C@@H](COc2ccccc2)C1 [Example 265, (R)-10-(4-Methyl-3-phenoxymethyl-piperazin-1-yl)-2-methyl-4H-3-thia-4,9-diaza-benzo[f]azulene] |
| – | 55 to 65 °C | – | – | – | – | Cc1cc2c(s1)Nc1ccccc1N=C2N1CCN(C)[C@@H](COCc2ccccc2)C1 [Example 270, (R)-10-(3-Benzyloxymethyl-4-methyl-piperazin-1-yl)-2-methyl-4H-3-thia-4,9-diaza-benzo[f]azulene] |
| – | – | 6 | 24 | 6 mg/kg, po | >30 mg/kg, po | COCC[C@H]1CN(C2=Nc3ccc(F)cc3Nc3sc(C)cc32)CCN1C [Example 279, (S)-6-Fluoro-10-[3-(2-methoxy-ethyl)-4-methyl-piperazin-1-yl]-2-methyl-4H-3-thia-4,9-diaza-benzo[f]azulene hydrochloride] |
| – | – | 11 | 80 | 6.4 mg/kg, po | >30 mg/kg, po | COCC[C@H]1CN(C2=Nc3cc(F)c(F)cc3Nc3sc(C)cc32)CCN1C.Cl.Cl [Example 288, (S)-6,7-Difluoro-10-[3-(2-methoxy-ethyl)-4-methyl-piperazin-1-yl]-2-methyl-4H-3-thia-4,9-diaza-benzo[f]azulene hydrochloride] |
| – | – | 13 | 48 | 7.5 mg/kg, po | >30 mg/kg, po | COCC[C@H]1CN(C2=Nc3cc(Cl)ccc3Nc3sc(C)cc32)CCN1C [Example 292, (S)-7-Chloro-10-[3-(2-methoxy-ethyl)-4-methyl-piperazin-1-yl]-2-methyl-4H-3-thia-4,9-diaza-benzo[f]azulene dihydrochloride] |
| < 10 | – | 9 | 91 | 4 mg/kg, po | >30 mg/kg, po | COCC[C@H]1CN(C2=Nc3ccccc3Nc3sc(C(C)C)nc32)CCN1C.Cl.Cl [Example 327, (S)-10-[3-(2-Methoxyethyl)-4-methylpiperazin-1-yl]-2-isopropyl-4H-3-thia-1,4,9-triazabenzo[f]azulene dihydrochloride] |

— patent publication US7384934B2, “Piperazine substituted aryl benzodiazepines” (Eli Lilly and Company, priority 2002, dated 2008)
